{"source": "patent US12076308B2", "about": "“Terpene control in scaleable cannabinoid medicinal formulations” (priority 2015, dated 2024)", "key": {"pancreatic cancer": {"tested_on": "pancreatic cancer", "conditions": "cited from earlier work; for tumor volume over time: mice, repeated injections, compared with control group curve CRTL; for effect on pancreatic cancer cells/tumors in mice: reported by Donadelli, high dosages of CB1 ligand"}, "[1]": {"assay": "War veterans with PTSD given cannabinoid infused chocolates", "type": "in vivo, human", "conditions": "THC alone", "procedure": "In a separate set of observations and tests, war veterans suffering from post-traumatic stress disorder (PTSD) were observed purchasing large amounts of un-tested hashish from local dispensaries on sale days. After observing this, samples of this hashish were tested. […] Veterans suffering from PTSD received cannabinoid infused chocolates with controlled dosages. This process identified that chocolates infused with 44 mg of THC and 4 mg of CBD were effective in treating these veterans PTSD. Information reported by veterans identified that many of them were also suffering from pain and had been consuming opiates to combat the pain. The opiates that these veterans were taking reportedly exacerbated PTSD symptoms. […] Patients of Laguna Honda Hospital in California were also provided medications that included both THC and CBD and reported benefit."}}, "note": "Where two headings read alike, the source gives them in different places."}
{"molecule": "Nc1ccn([C@@H]2O[C@H](CO)[C@@H](O)C2(F)F)c(=O)n1", "note": "[Gemcitabine]", "values": [{"measurement": "tumor volume over time", "setting": "pancreatic cancer", "value": "grew at even a slower rate"}]}
{"molecule": "Cc1c(C(=O)NN2CCCCC2)nn(-c2ccc(Cl)cc2Cl)c1-c1ccc(Cl)cc1", "note": "[SR1, Rimonabant]", "values": [{"measurement": "tumor volume over time", "setting": "pancreatic cancer", "value": "grew at a slower rate"}, {"measurement": "effect on pancreatic cancer cells/tumors in mice", "setting": "pancreatic cancer", "value": "reducing pancreatic cancer tumors"}, {"measurement": "effect on pancreatic cancer cells/tumors in mice", "setting": "pancreatic cancer; listed as Rimonabant", "value": "shrunk pancreatic cancer cells"}]}
{"molecule": "CCCCCc1cc(O)c2c(c1)OC(C)(C)[C@@H]1CCC(C)=C[C@@H]21", "note": "[THC, tetrahydrocannabinol]", "values": [{"measurement": "benefit when treating pain combined with PTSD, versus combined THC/CBD medication", "setting": "[1]", "value": "either not effective or provided limited benefits"}, {"measurement": "psychotic side effects associated with PTSD", "setting": "[1]", "value": "increased psychotic side effects"}]}
